pIC50: −log10 of the molar value.
System: PDE4 enzyme of human origin
Experiment: PDE4-inhibiting activity on an enzyme preparation obtained from the U937 cell line
Type: biochemical
Protocol: In the case of the PDE4 enzymes, this value is compared with that of rolipram, a specific PDE4 inhibitor. […] Measurement of the enzyme activity of the different types of PDE, and especially of the PDE4 enzymes, is then carried out according to a method adapted from W. J. Thompson, ibidem.

**Q.** With `COC(=O)c1ccc2c(=O)n(C3N=C(c4ccccc4)c4cc(N)cc5c4N(CC5)C3=O)c(C)nc2c1` (stereo not shown) [Example 28B] as the compound, how does the pIC50 read?
**A.** Its pIC50 is 8.52.

**Q.** With `COC(=O)c1ccc2c(=O)n(C3N=C(c4ccccc4)c4cc(N)cc5c4N(CC5)C3=O)c(C)nc2c1` (stereo not shown) [Example 28C] as the compound, how does the pIC50 read?
**A.** The pIC50 was 7.15.

**Q.** How did the pIC50 turn out when `Cc1nc2cc(C(=O)O)ccc2c(=O)n1C1N=C(c2ccccc2)c2cc(N)cc3c2N(CC3)C1=O` (stereo not shown) [Example 28D, 3-(9-Amino-4oxo-1-phenyl-3,4,6,7-tetrahydro[1,4]diazepino[6,7,1-hi]indol-3-yl)-2-methyl-4-oxo-3,4-dihydroquinazoline-7-carboxylic acid] was run?
**A.** Its pIC50 is 8.05.

**Q.** How did the pIC50 turn out when `Cc1nc2ccccc2c(=O)n1C1N=C(c2ccccc2)c2cc(N)cc3c2N(CC3)C1=O` (stereo not shown) [Example 29, 9-Amino-3-(2-methyl-4-oxo-4H-quinazolin-3-yl)-1-phenyl-6,7-dihydro-3H-[1,4]diazepino[6,7,1-hi]indol-4-one] was run?
**A.** The pIC50 was 7.89.

**Q.** `Cc1cccc2nc(C)n(C3N=C(c4ccccc4)c4cc(N)cc5c4N(CC5)C3=O)c(=O)c12` (stereo not shown) [Example 30, 9-Amino-3-(2,5-dimethyl-4-oxo-4H-quinazolin-3-yl)-1-phenyl-6,7-dihydro-3H-[1,4]diazepino[6,7,1-hi]indol-4-one] was tested. Which pIC50 did it give?
**A.** The pIC50 was 8.10.

**Q.** With `Cc1ccc2nc(C)n(C3N=C(c4ccccc4)c4cc(N)cc5c4N(CC5)C3=O)c(=O)c2c1` (stereo not shown) [Example 31, 9-Amino-3-(2,6dimethyl-4-oxo-4H-quinazolin-^3-yl)-1-phenyl-6,7-dihydro-3H-[1,4]diazepino[6,7,1-hi]indol-4-one] as the compound, how does the pIC50 read?
**A.** The pIC50 was 7.06.

**Q.** `Cc1cccc2c(=O)n(C3N=C(c4ccccc4)c4cc(N)cc5c4N(CC5)C3=O)c(C)nc12` (stereo not shown) [Example 32, 9-Amino-3-(2,8-dimethyl-4-oxo-4H-quinazolin-3-yl)-l1-phenyl-6,7-dihydro-3H-[1,4]diazepino[6,7,1-hi]indole-4-one] was tested. Which pIC50 did it give?
**A.** Its pIC50 is 7.26.

**Q.** `Cc1cc(C)c2nc(C)n(C3N=C(c4ccccc4)c4cc(N)cc5c4N(CC5)C3=O)c(=O)c2c1` (stereo not shown) [Example 33, 9-Amino-3-(2,6,8-trimethyl-4-oxo-4H-quinazolin-3-yl)-1-phenyl-6,7-dihydro-3H-[1,4]diazepino[6,7,1-hi]indol-4-one] was tested. Which pIC50 did it give?
**A.** Its pIC50 is 6.81.

**Q.** With `Cc1nc2cnccc2c(=O)n1C1N=C(c2ccccc2)c2cc(N)cc3c2N(CC3)C1=O` (stereo not shown) [Example 34, 9-Amino-3-(2-methyl-4-oxo-4H-pyrido[3,4-d]pyrimidin-3-yl)-1-phenyl-6,7-dihydro-3H-[1,4]diazepino[6,7,1-hi]indol-4-one] as the compound, how does the pIC50 read?
**A.** The pIC50 was 7.38.

**Q.** How did the pIC50 turn out when `Cc1nc2cccc(Cl)c2c(=O)n1C1N=C(c2ccccc2)c2cc(N)cc3c2N(CC3)C1=O` (stereo not shown) [Example 34B, 9-Amino-3-(5-chloro-2-methyl-4-oxo-4H-quinazolin-3-yl)-1-phenyl-6,7-dihydro-3H-[1,4]diazepino[6,7,1-hi]indol-4-one] was run?
**A.** The pIC50 was 8.52.

**Q.** With `Cc1cc2c3c(c1)C(c1ccccc1)=NC(n1c(C)nc4cc(C(=O)N[C@H](C(=O)O)C(C)C)ccc4c1=O)C(=O)N3CC2` (stereo partly shown) [Example 35, N-(2-methyl-3-(9-methyl-4-oxo-1-phenyl-3,4,6,7-tetrahydro[1,4]diazepino[6,7,1-hi]indol-3-yl)-4-oxo-3,4-dihydroquinazoline-7-carbonyl)valine] as the compound, how does the pIC50 read?
**A.** The pIC50 was 6.97.

**Q.** `Cc1cc2c3c(c1)C(c1ccccc1)=NC(n1c(C)nc4cc(C(=O)N[C@@H](Cc5ccc(O)cc5)C(=O)O)ccc4c1=O)C(=O)N3CC2` (stereo partly shown) [Example 35A, N-(2-Methyl-3-(9-methyl-4-oxo-1-phenyl-3,4,6,7-tetrahydro[1,4]diazepino[6,7,1-hi]indol-3-yl)-4-oxo-3,4-dihydroquinazoline-7-carboxyl)tyrosine] was tested. Which pIC50 did it give?
**A.** Its pIC50 is 7.06.

**Q.** How did the pIC50 turn out when `Cc1cc2c3c(c1)C(c1ccccc1)=NC(n1c(C)nc4cc(C(=O)N[C@@H](C)C(=O)O)ccc4c1=O)C(=O)N3CC2` (stereo partly shown) [Example 35B] was run?
**A.** Its pIC50 is 6.72.

**Q.** With `Cc1cc2c3c(c1)C(c1ccccc1)=NC(n1c(C)nc4cc(C(=O)N[C@@H](Cc5ccccc5)C(=O)O)ccc4c1=O)C(=O)N3CC2` (stereo partly shown) [Example 35C, N-(2-Methyl-3-(9-methyl-4-oxo-1-phenyl-3,4,6,7-tetrahydrol[1,4]diazepino[6,7,1-hi]indol-3-yl)-4-oxo-3,4-dihydroquinazoline-7-carboxyl)phenylalanine] as the compound, how does the pIC50 read?
**A.** Its pIC50 is 6.95.

**Q.** How did the pIC50 turn out when `Cc1cc2c3c(c1)C(c1ccccc1)=NC(n1c(C)nc4cc(C(=O)NCC(=O)O)ccc4c1=O)C(=O)N3CC2` (stereo not shown) [Example 35D, N-(2-Methyl-3-(9-methyl-4-oxo-1-phenyl-3,4,6,7-tetrahydro[1,4]diazepino[6,7,1-hi]indol-3-yl)-4-oxo-3,4-dihydroquinazoline-7-carboxyl)glycine] was run?
**A.** The pIC50 was 7.19.

**Q.** `Cc1cc2c3c(c1)C(c1ccccc1)=NC(n1c(C)nc4cc(C(=O)N[C@@H](CC(C)C)C(=O)O)ccc4c1=O)C(=O)N3CC2` (stereo partly shown) [Example 35E, N-(2-Methyl-3-(9-methyl-4-oxo-1-phenyl-3,4,6,7-tetrahydro[1,4]diazepino[6,7,1-hi]indol-3-yl)-4-oxo-3,4-dihydroquinazoline-7-carboxyl)leucine] was tested. Which pIC50 did it give?
**A.** Its pIC50 is 7.09.

**Q.** With `Cc1cc2c3c(c1)C(c1ccccc1)=NC(n1c(C)nc4cc(C(=O)N[C@@H](CC(=O)O)C(=O)O)ccc4c1=O)C(=O)N3CC2` (stereo partly shown) [Example 35F, N-(2-Methyl-3-(9-methyl-4-oxo-1-phenyl-3,4,6,7-tetrahydro[1,4]diazepino[6,7,1-hi]indol-3-yl)-4-oxo-3,4-dihydroquinazoline-7-carboxyl)aspartic acid] as the compound, how does the pIC50 read?
**A.** Its pIC50 is 6.26.

**Q.** With `Cc1cc2c3c(c1)C(c1ccccc1)=NC(n1c(C)nc4cc(C(=O)N5CCC[C@H]5C(=O)O)ccc4c1=O)C(=O)N3CC2` (stereo partly shown) [Example 35G, N-(2-Methyl-3-(9-methyl-4-oxo-1-phenyl-3,4,6,7-tetrahydro[1,4]diazepino[6,7,1-hi]indol-3-yl)-4-oxo-3,4-dihydroquinazoline-7-carboxyl)proline] as the compound, how does the pIC50 read?
**A.** Its pIC50 is 6.54.

**Q.** How did the pIC50 turn out when `Cc1cc2c3c(c1)C(c1ccccc1)=NC(n1c(C)nc4cc(C(=O)N[C@@H](CCC(=O)O)C(=O)O)ccc4c1=O)C(=O)N3CC2` (stereo partly shown) [Example 35H, N-(2-Methyl-3-(9-methyl-4-oxo-1-phenyl-3,4,6,7-tetrahydro[1,4]diazepino[6,7,1-hi]indol-3-yl)-4-oxo-3,4-dihydroquinazoline-7-carboxyl)glutamic acid] was run?
**A.** Its pIC50 is 6.66.

**Q.** How did the pIC50 turn out when `Cc1cc2c3c(c1)C(c1ccccc1)=NC(n1c(C)nc4cc(C(=O)N[C@@H](CCCCN)C(=O)O)ccc4c1=O)C(=O)N3CC2` (stereo partly shown) [Example 35I] was run?
**A.** The pIC50 was 6.92.

**Q.** With `CCOC(=O)[C@H](Cc1ccccc1)NC(=O)c1ccc2c(=O)n(C3N=C(c4ccccc4)c4cc(C)cc5c4N(CC5)C3=O)c(C)nc2c1` (stereo partly shown) [Example 36, Ethyl 2-{[2-methyl-3-(9-methyl-4-oxo-1-phenyl-3,4,6,7-tetrahydro[1,4]diazepino[6,7,1-hi]indol-3-yl)-4-oxo-3,4-dihydroquinazolin0e-7-carbonyl]amino}-3-phenyl-(L)-propionate] as the compound, how does the pIC50 read?
**A.** Its pIC50 is 6.51.

**Q.** How did the pIC50 turn out when `COc1ccc(C2CNC(=O)C2)cc1OC1CCCC1` (stereo not shown) [rolipram, reference compound] was run?
**A.** Its pIC50 is 6.10.

Reference: US6239130A, “Phosphodiesterase 4-inhibiting diazepinoindolones” (Warner-Lambert Company, priority 1997, dated 2001)
